Like-named read-outs stand apart in the source and are kept apart here.
Experiments:
MRP = experiment: Inhibition of MRP expression in H-9 cells; format: cell-based, human; details: 25 μM Ara-C, data not shown
Method: PCR was performed using the following primers: […]
(where β2 M represents β2 microglobulin). PCR was performed for β2 M experiments under a regime consisting of 1 cycle comprising denaturation at 94° C. for 3 minutes, primer annealing at 60° C. for 30 seconds, and primer extension at 72° C. for 1 minute, followed by 19 cycles comprising denaturation at 94° C. for 30 seconds, primer annealing at 60° C. for 30 seconds, and primer extension at 72° C. for 1 minute, followed by a final cycle comprising denaturation at 94° C. for 30 seconds, primer annealing at 60° C. for 30 seconds, and primer extension at 72° C. for 5 minutes.

MDR1 [1] = format: cell-based, human
Method: The times of drug exposure are indicated.
(Commercially-available kits (for example, from GIBCO/BRL, Gaithersburg, Md.) can be advantageously modified for making cDNA using random hexamers.) PCR is then performed using the following primers: […]
Next, it was tested whether drug-induced MDR1 expression was maintained after the cytotoxic treatment. […] At different time points, MDR1 expression in the surviving cells was analyzed by dye efflux and immunofluorescence labeling with UIC2 (FIG. 3c) or by cDNA-PCR (FIG. 4e).

P-glycoprotein [2] = biological target: T1, P-glycoprotein (Homo sapiens, UniProt P08183); experiment: Dye efflux (Rh123 or DiOC2 (3)) assay of drug-treated K562 cells; details: Ara-C 12-72 hours
T1 sequence (P08183 whole entry): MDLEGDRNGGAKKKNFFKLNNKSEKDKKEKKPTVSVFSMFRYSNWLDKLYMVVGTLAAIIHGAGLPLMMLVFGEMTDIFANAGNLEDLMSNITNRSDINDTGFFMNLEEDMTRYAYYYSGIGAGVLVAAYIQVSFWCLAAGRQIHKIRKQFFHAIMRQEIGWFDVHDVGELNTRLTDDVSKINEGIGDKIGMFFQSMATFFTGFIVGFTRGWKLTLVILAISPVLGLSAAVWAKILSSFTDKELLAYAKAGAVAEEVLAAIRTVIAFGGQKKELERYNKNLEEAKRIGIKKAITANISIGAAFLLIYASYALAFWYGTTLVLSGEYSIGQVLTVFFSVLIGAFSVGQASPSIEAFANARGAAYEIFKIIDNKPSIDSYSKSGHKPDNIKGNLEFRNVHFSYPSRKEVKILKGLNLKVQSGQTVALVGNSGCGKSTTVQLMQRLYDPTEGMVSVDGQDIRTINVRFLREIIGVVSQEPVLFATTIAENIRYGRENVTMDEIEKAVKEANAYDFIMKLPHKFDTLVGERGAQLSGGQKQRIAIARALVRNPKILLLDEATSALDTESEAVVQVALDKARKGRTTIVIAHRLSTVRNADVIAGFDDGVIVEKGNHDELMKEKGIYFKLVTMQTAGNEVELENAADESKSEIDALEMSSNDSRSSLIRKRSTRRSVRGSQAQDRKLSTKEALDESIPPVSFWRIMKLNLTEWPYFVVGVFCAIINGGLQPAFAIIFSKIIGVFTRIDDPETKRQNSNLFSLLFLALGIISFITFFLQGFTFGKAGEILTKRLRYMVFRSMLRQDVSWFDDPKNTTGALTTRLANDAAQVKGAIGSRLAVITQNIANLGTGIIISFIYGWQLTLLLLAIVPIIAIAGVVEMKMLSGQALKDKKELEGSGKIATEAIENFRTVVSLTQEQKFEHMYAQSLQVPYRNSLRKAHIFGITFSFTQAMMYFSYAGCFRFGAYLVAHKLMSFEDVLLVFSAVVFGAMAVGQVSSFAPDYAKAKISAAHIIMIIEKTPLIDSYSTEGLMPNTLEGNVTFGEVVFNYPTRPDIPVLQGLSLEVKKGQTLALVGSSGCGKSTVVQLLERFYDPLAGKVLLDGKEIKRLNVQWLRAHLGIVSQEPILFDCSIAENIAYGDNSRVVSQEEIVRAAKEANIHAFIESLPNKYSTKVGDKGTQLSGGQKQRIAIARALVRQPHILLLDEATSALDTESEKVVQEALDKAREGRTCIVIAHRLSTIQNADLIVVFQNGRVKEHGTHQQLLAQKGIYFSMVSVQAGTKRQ
Method: (§1) Top panel: Rh123 efflux from untreated cells (-) and from cells treated with 50 μM Ara-C (ARA) for 12 hours or with 10 μAra-C for 2 to 3 days.

MDR1 [3] = details: cited from earlier work
P-glycoprotein [4] = biological target: T1, P-glycoprotein
Method: as §1

PKC = details: literature; cited from earlier work
tumor = details: nude mice, i.p. 20 mg/kg; cited from earlier work

Nc1ccn([C@@H]2O[C@H](CO)[C@@H](O)[C@@H]2O)c(=O)n1 [Ara-C, 1-β-D-arabinofuranosylcytosine]
effect on MRP expression (MRP): slight decrease in MRP expression
maintenance of MDR1 expression after removal of the drug (MDR1 [1]; Ara-C treated K562 population): up to 11 weeks
MDR1 mRNA expression (MDR1 [1]; EJ bladder carcinoma, 10 μM, 4 days): activated MDR1 mRNA expression
MDR1 mRNA expression (MDR1 [1]; H9 T-cell leukemia): activated MDR1 mRNA expression
maintenance of MDR1 expression after removal of the drug (MDR1 [1]; K562 cells treated 3-5 days, then grown in absence of drug): least several weeks
MDR1 mRNA expression relative to β2 -glycoprotein (MDR1 [1]; K562 cells, Ara-C): dose-dependent increase in MDR1 mRNA expression
MDR1 mRNA expression (MDR1 [1]; KB-3-1 epidermoid carcinoma, 2 days): activated MDR1 mRNA expression
P-glycoprotein expression (Rh123 accumulation or UIC2 immunoreactivity) (MDR1 [1]; KG1 leukemia cells, Ara-C (10 μM, 1.5 days)): increased P-glycoprotein expression
MDR1 induction, mRNA and protein levels (MDR1 [1]; human leukemia and solid-tumor derived cell lines, subpopulation of treated cells): MDR1 induction, both at the mRNA and at the protein levels, was observed
subpopulation of live cells showing efflux of Rh123 (P-glycoprotein [2]): 3-17%

O=[As][O-].[Na+] [arsenite]
MDR1 expression (MDR1 [3]): increased

COc1cccc2c1C(=O)c1c(O)c3c(c(O)c1C2=O)C[C@@](O)(C(C)=O)C[C@@H]3O[C@H]1C[C@H](N)[C@H](O)[C@H](C)O1 [daunorubicin]
MDR1 induction, mRNA and protein levels (MDR1 [1]): MDR1 induction, both at the mRNA and at the protein levels, was observed
MDR1 mRNA induction (MDR1 [1]): induce MDR1 mRNA expression
treated cells showing efflux of Rh123 or DiOC2 (3) (P-glycoprotein [4]): 3-10%

O=c1c(O)c(-c2ccc(O)c(O)c2)oc2cc(O)cc(O)c12 [quercetin]
effect on arsenite-induced increase in MDR1 expression (MDR1 [3]): can prevent an increase in MDR1 expression
inhibition of protein kinase C (PKC): inhibition of PKC activity
potentiation of anti-tumor effect of cisplatin (tumor): potentiate the anti-tumor effect of cisplatin

CC[C@]1(O)C[C@@H]2CN(CCc3c([nH]c4ccccc34)[C@@](C(=O)OC)(c3cc4c(cc3OC)N(C)[C@H]3[C@@](O)(C(=O)OC)[C@H](OC(C)=O)[C@]5(CC)C=CCN6CC[C@]43[C@@H]65)C2)C1 [vinblastine]
MDR1 induction, mRNA and protein levels (MDR1 [1]): MDR1 induction, both at the mRNA and at the protein levels, was observed
MDR1 mRNA expression (MDR1 [1]): MDR1 mRNA expression was induced
MDR1 mRNA induction (MDR1 [1]): induce MDR1 mRNA expression
treated cells showing efflux of Rh123 or DiOC2 (3) (P-glycoprotein [4]): 3-10%

Reference: patent US5972598A, “Methods for preventing multidrug resistance in cancer cells” (priority 1995, dated 1999)
